Test results from patent US8658794B2, “8-methyl-1-phenyl-imidazol[1,5-a]pyrazine compounds as Lck inhibitors and uses thereof” (Merck Sharp & Dohme B.V., priority 2010, dated 2014).

biological target: T1, N-terminal His6-tagged recombinant full-length human Lck (Homo sapiens, UniProt P06239); assay: Lck IMAP assay; format: biochemical; details: ATP 6 μM (KM,ATP), enzyme pre-incubated with compounds for 60 minutes, values given as bins
T1 construct: N-terminal His6-tagged recombinant full-length human Lck; His6 (N); purchased Millipore
From the text: Inhibition of kinase activity can be measured using the Immobilized Metal Assay for Phosphochemicals (IMAP) assay. IMAP is a homogeneous fluorescence polarization (FP) assay based on affinity capture of phosphorylated peptide substrates. IMAP uses fluorescein-labeled peptide substrates that, upon phosphorylation by a protein kinase, bind to so-called IMAP nanoparticles, which are derivatized with trivalent metal complexes. Binding causes a change in the rate of the molecular motion of the peptide, and results in an increase in the FP value observed for the fluorescein label attached to the substrate peptide (Gaudet et al. A homogeneous fluorescence polarization assay adaptable for a range of protein serine/threonine and tyrosine kinases. J. Biomol. Screen (2003) 8, 164-175).
Enzyme used was N-terminal His6-tagged recombinant full-length human Lck from Millipore. Phosphorylation substrate was a fluorescein-labeled peptide (5FAM-KVEKIGEGTYGVV—NH2) derived from p34cdc2 from Molecular Devices. Enzymes, substrate and ATP were diluted in Kinase Reaction buffer (10 mM Tris-HCl, 10 mM MgCl2, 0.01% Tween-20, 0.05% NaN3 pH 7.2, 1 mM DTT (dithiotreitol). The final volume at the kinase reaction step of the assay in the 384-well plate was 20 μl. Final amount of enzyme in the reaction was 0.1 U/ml. Enzyme was pre-incubated with compounds diluted in 1% DMSO (dimethylsulfoxide) for 60 minutes at room temperature in the dark. Subsequently, peptide substrate to a final concentration of 100 nM, and ATP to a final concentration of 6 μM were added and the mix was incubated for 120 minutes at room temperature in the dark. IMAP progressive binding buffer (75% 1× buffer A, 25% 1× buffer B with 1:600 Progressive Binding Reagent; Molecular Devices) was added, followed by an incubation step of 60 minutes at room temperature in the dark. Finally, the FP signal was read on an Envision Multilabel reader (Perkin Elmer).
All biochemical assays were run at KM,ATP of the enzyme using non-saturated conditions, meaning that during the incubation time it was assured that the signal increase was linear with time. For all biochemical assays a reference standard was used on each plate.
Ten point serial dilutions using a √10 dilution factor were used for dose response testing of compounds. Starting concentration was 10^-6M for Lck IMAP assays. Dose-response curves were run as two experiments on duplicate plates (N=1; n=2). All data was normalized to percentage effect based on maximum (Max) and minimum (Min) control values. On every 384 assay plate 16 wells were used as minimum wells (wells with ATP, 0% effect) and 16 wells were used as maximum wells (wells without ATP, 100% effect). 16 wells were used for measuring the background signal, obtained from a kinase reaction containing all constituents except the labeled peptide substrate. Percentage effect was plotted against log dilution concentration of compound to obtain sigmoid dose response curves. pIC50 values were calculated using ActivityBase.

T1 sequence (P06239 whole entry): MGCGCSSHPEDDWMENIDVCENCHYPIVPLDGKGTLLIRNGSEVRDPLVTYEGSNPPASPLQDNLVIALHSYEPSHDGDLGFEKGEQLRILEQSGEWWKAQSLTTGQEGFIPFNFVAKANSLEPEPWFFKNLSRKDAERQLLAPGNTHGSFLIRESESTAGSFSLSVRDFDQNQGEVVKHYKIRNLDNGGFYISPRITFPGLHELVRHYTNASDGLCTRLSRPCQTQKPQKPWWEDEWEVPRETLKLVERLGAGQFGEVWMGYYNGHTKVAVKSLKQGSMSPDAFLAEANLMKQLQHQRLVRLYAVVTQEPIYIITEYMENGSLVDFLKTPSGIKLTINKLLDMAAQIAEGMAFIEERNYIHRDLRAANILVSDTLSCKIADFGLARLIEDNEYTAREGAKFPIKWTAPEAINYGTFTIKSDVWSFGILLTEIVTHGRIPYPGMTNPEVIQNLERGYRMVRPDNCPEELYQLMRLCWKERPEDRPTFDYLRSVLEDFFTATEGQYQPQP

Compound | IC50
CC[C@H](C)OC(=O)Nc1ccc(-c2nc([C@H]3CC[C@H](N4CCN(C)CC4)CC3)n3ccnc(C)c23)cc1OC [Example 48, (S)-sec-Butyl 2-methoxy-4-(8-methyl-3-((trans)-4-(4-methylpiperazin-1-yl)cyclohexyl)imidazo[1,5-a]pyrazin-1-yl)phenylcarbamate] | ≤ 10 nM
COc1cc(-c2nc([C@H]3CC[C@H](N)CC3)n3ccnc(C)c23)ccc1NC(=O)c1cc2c(OC)cccc2n1C [Example 39, N-(4-(3-((trans)-4-aminocyclohexyl)-8-methylimidazo[1,5-a]pyrazin-1-yl)-2-methoxyphenyl)-4-methoxy-1-methyl-1H-indole-2-carboxamide] | ≤ 10 nM
COc1cc(-c2nc([C@H]3CC[C@H](N4CCN(C)CC4)CC3)n3ccnc(C)c23)ccc1NC(=O)c1cc(Cl)cn1C [Example 55, 4-Chloro-N-(2-methoxy-4-(8-methyl-3-((trans)-4-(4-methylpiperazin-1-yl)cyclohexyl)imidazo[1,5-a]pyrazin-1-yl)phenyl)-1-methyl-1H-pyrrole-2-carboxamide] | ≤ 10 nM
COc1cc(-c2nc([C@H]3CC[C@H](N4CCN(C)CC4)CC3)n3ccnc(C)c23)ccc1NC(=O)c1cc2ccsc2[nH]1 [Example 57, N-(2-Methoxy-4-(8-methyl-3-((trans)-4-(4-methylpiperazin-1-yl)cyclohexyl)imidazo[1,5-a]pyrazin-1-yl)phenyl)-6H-thieno[2,3-b]pyrrole-5-carboxamide] | ≤ 10 nM
COc1cc(-c2nc(C3CCN(C(N)=O)CC3)n3ccnc(C)c23)ccc1NC(=O)c1cc2c(OC)cccc2n1C [Example 21, N-(4-(3-(1-carbamoylpiperidin-4-yl)-8-methylimidazo[1,5-a]pyrazin-1-yl)-2-methoxyphenyl)-4-methoxy-1-methyl-1H-indole-2-carboxamide] | ≤ 10 nM
COc1cc(-c2nc([C@@H]3CCN(C(=O)CN(C)C)C3)n3ccnc(C)c23)ccc1NC(=O)c1cc2c(OC)cccc2n1C [Example 33e, (R)—N-(4-(3-(1-(2-(dimethylamino)acetyl)pyrrolidin-3-yl)-8-methylimidazo[1,5-a]pyrazin-1-yl)-2-methoxyphenyl)-4-methoxy-1-methyl-1H-indole-2-carboxamide] | ≤ 10 nM
CCC[C@H](C)OC(=O)Nc1ccc(-c2nc([C@H]3CC[C@H](N(CCOC)C(C)=O)CC3)n3ccnc(C)c23)cc1OC [Example 29, (S)-Pentan-2-yl 2-methoxy-4-(3-((trans)-4-(N-(2-methoxyethyl)acetamido)cyclohexyl)-8-methylimidazo[1,5-a]pyrazin-1-yl)phenylcarbamate] | ≤ 10 nM
COc1cc(-c2nc([C@H]3CC[C@H](N4CC(F)(F)C4)CC3)n3ccnc(C)c23)ccc1NC(=O)c1cc2c(OC)cccc2n1C [Example 9, N-(4-(3-((trans)-4-(3,3-difluoroazetidin-1-yl)cyclohexyl)-8-methylimidazo[1,5-a]pyrazin-1-yl)-2-methoxyphenyl)-4-methoxy-1-methyl-1H-indole-2-carboxamide] | ≤ 10 nM
COc1cc(-c2nc([C@H]3CC[C@H](N4CCN(C)CC4)CC3)n3ccnc(C)c23)ccc1NC(=O)c1cc2c(OC)cccc2[nH]1 [Example 58, 4-Methoxy-N-(2-methoxy-4-(8-methyl-3-((trans)-4-(4-methylpiperazin-1-yl)cyclohexyl)imidazo[1,5-a]pyrazin-1-yl)phenyl)-1H-indole-2-carboxamide] | ≤ 10 nM
COCCN(C)[C@H]1CC[C@@H](c2nc(-c3ccc(NC(=O)c4cc5c(OC)cccc5n4C)c(OC)c3)c3c(C)nccn32)CC1 [Example 26c, 4-methoxy-N-(2-methoxy-4-(3-((cis)-4-((2-methoxyethyl)(methyl)amino)cyclo-hexyl)-8-methylimidazo[1,5-a]pyrazin-1-yl)phenyl)-1-methyl-1H-indole-2-carboxamide] | ≤ 10 nM
CCC[C@H](C)OC(=O)Nc1ccc(-c2nc(N3CCC3)n3ccnc(C)c23)cc1OC [Example 3, (S)-pentan-2-yl 4-(3-(azetidin-1-yl)-8-methylimidazo[1,5-a]pyrazin-1-yl)-2-methoxyphenylcarbamate] | 10 to 100 nM
CCC[C@H](C)OC(=O)Nc1ccc(-c2nc([C@H]3CC[C@H](CNC(=O)OC)CC3)n3ccnc(C)c23)cc1OC [Example 70] | ≤ 10 nM
COc1cc(-c2nc(C3CCOCC3)n3ccnc(C)c23)c(F)cc1NC(=O)c1cc2c(OC)cccc2n1C [Example 46, N-(5-fluoro-2-methoxy-4-(8-methyl-3-(tetrahydro-2H-pyran-4-yl)imidazo[1,5-a]pyrazin-1-yl)phenyl)-4-methoxy-1-methyl-1H-indole-2-carboxamide] | ≤ 10 nM
COc1cc(-c2nc(N3CCN(C4CCN(C(C)=O)CC4)CC3)n3ccnc(C)c23)ccc1NC(=O)c1cc2c(OC)cccc2n1C [Example 32, N-(4-(3-(4-(1-Acetylpiperidin-4-yl)piperazin-1-yl)-8-methylimidazo[1,5-a]pyrazin-1-yl)-2-methoxyphenyl)-4-methoxy-1-methyl-1H-indole-2-carboxamide] | ≤ 10 nM
Cc1nccn2c1c(-c1ccc(NC(=O)c3cc4ccccc4n3C)cc1)nc2[C@H]1CC[C@H](N2CCN(C)CC2)CC1 [Example 61, 1-Methyl-N-(4-(8-methyl-3-((trans)-4-(4-methylpiperazin-1-yl)cyclohexyl)imidazo[1,5-a]pyrazin-1-yl)phenyl)-1H-indole-2-carboxamide] | ≤ 10 nM
COc1cc(-c2nc([C@H]3CC[C@H](N4CCN(C(C)=O)CC4)CC3)n3ccnc(C)c23)ccc1NC(=O)c1cc2ccccc2n1C [Example 33c, N-(4-(3-((trans)-4-(4-acetylpiperazin-1-yl)cyclohexyl)-8-methylimidazo[1,5-a]pyrazin-1-yl)-2-methoxyphenyl)-1-methyl-1H-indole-2-carboxamide] | ≤ 10 nM
COc1cc(-c2nc(N3CCOCC3)n3ccnc(C)c23)ccc1NC(=O)c1cc2ccccc2n1C [Example 24, N-(2-methoxy-4-(8-methyl-3-(morholin-4-yl)imidazo[1,5-a]pyrazin-1-yl)phenyl)-1-methyl-1H-indole-2-carboxamide] | ≤ 10 nM
COc1cc(-c2nc(N3CCn4c(nnc4C(F)(F)F)C3)n3ccnc(C)c23)ccc1NC(=O)c1cc2c(OC)cccc2n1C [Example 37, 4-Methoxy-N-(2-methoxy-4-(8-methyl-3-(3-(trifluoromethyl)-5,6-dihydro-[1,2,4]triazolo[4,3-a]pyrazin-7(8H)-yl)imidazo[1,5-a]pyrazin-1-yl)phenyl)-1-methyl-1H-indole-2-carboxamide] | 10 to 100 nM
COc1cc(-c2nc([C@H]3CC[C@H](N4CC(F)(F)C4)CC3)n3ccnc(C)c23)ccc1N(C)C(=O)OC(C)C [Example 41, Isopropyl 4-(3-((trans)-4-(3,3-difluoroazetidin-1-yl)cyclohexyl)-8-methylimidazo[1,5-a]pyrazin-1-yl)-2-methoxyphenyl(methyl)carbamate] | 100 to 1000 nM
COc1cc(-c2nc(C3CN(C4CCOCC4)C3)n3ccnc(C)c23)ccc1NC(=O)c1cc2c(OC)cccc2n1C [Example 16, 4-Methoxy-N-(2-methoxy-4-(8-methyl-3-(1-(tetrahydro-2H-pyran-4-yl)azetidin-3-yl)imidazo[1,5-a]pyrazin-1-yl)phenyl)-1-methyl-1H-indole-2-carboxamide] | 10 to 100 nM
